Laboratory results taken from ChEMBL document CHEMBL1629496, “Four diphenylpropanes and a cycloheptadibenzofuran from Bussea sakalava from the Madagascar dry forest” (J Nat Prod, 2010).

These compounds were tested on A2780 (assay: Antiproliferative activity against drug-sensitive human A2780 cells).
Format: functional, cell-based

Row | IC50 [µM] | SMILES
1 | 36 | COc1ccc(CCCc2cc(O)c(OC)c(O)c2)c(O)c1O [BUSSEALIN A]
2 | 36 | COc1ccc(CCCc2ccc(OC)c(O)c2O)cc1O [BUSSEALIN C]

Further lines, the compound ahead of its results:

Row | SMILES | IC50 [µM]
3 | COc1cc(OC)c(CCCc2ccc(OC)c(O)c2O)cc1O [BUSSEALIN B] | 24
4 | COc1cc(OC)c(OC)cc1CCCc1ccc(OC)c(O)c1O [BUSSEALIN D] | 40
5 | COc1c(O)c2c3c(oc4c(OC)c(O)cc(c43)CCC2)c1OC [BUSSEALIN E] | 45
